Among the data in PubChem BioAssay (NCI) are GI50 and TGI values, retold here.

Some test systems named below: OVCAR-5 ovarian; OVCAR-3 ovarian; COLO 205 colon; HCT-116 colon; IGROV1 ovarian; UACC-257 melanoma; HL-60(TB) leukemia; SK-OV-3 ovarian; HOP-62 NSCLC; CAKI-1 renal.
Holding throughout (experiment): NCI anticancer screen, dose series, 48 h

Several values for one entry are separate records, joined by “and”; a condition that tells them apart may be missing. Equal values may be shown once.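 Method: 48-hour compound exposure of cells in 96-well plates, five concentrations, linear interpolation of endpoints. The concentration for 50% growth inhibition is given as GI50. TGI: concentration producing complete growth inhibition.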

Regarding `O=S(=O)([O-])[O-].[OH3+].[OH3+].[OH3+].[Ru+2].c1ccccc1`, the GI50 in the assay on OVCAR-5 ovarian, in the assay with OVCAR-3 ovarian, in the assay on COLO 205 colon, in the assay with HCT-116 colon, with IGROV1 ovarian and in the assay with UACC-257 melanoma was greater than 100 µM throughout. Moreover, the GI50 in the assay with HL-60(TB) leukemia and in the assay on SK-OV-3 ovarian was greater than 100 µM in each case. In addition, the TGI in the assay with OVCAR-5 ovarian, in the assay with OVCAR-3 ovarian, in the assay with COLO 205 colon, in the assay on HCT-116 colon, in the assay on IGROV1 ovarian and in the assay on UACC-257 melanoma was greater than 100 µM each time. The TGI with HL-60(TB) leukemia and in the assay with SK-OV-3 ovarian was greater than 100 µM each time.

On to `CC(C)C(C(=O)O)N(CC1(O)OCC(O)C(O)C1O)N=O` (stereo not given), for which the TGI in the assay with OVCAR-5 ovarian, in the assay with OVCAR-3 ovarian, with HOP-62 NSCLC, with COLO 205 colon, in the assay with HCT-116 colon and with IGROV1 ovarian was greater than 100 µM throughout. In addition, the TGI with UACC-257 melanoma, with HL-60(TB) leukemia and in the assay with SK-OV-3 ovarian was greater than 100 µM each time.

Consider `O=C1C=CC(=O)c2c1ccc1c3ccccc3n(-c3ccccn3)c21`, for which the TGI in the assay with OVCAR-5 ovarian is greater than 100 µM; with OVCAR-3 ovarian it was 63.8 µM; with COLO 205 colon, 30.2 µM; in the assay on HCT-116 colon, 25.9 µM; with UACC-257 melanoma, 37.3 µM; in the assay with HL-60(TB) leukemia it was 31.4 µM. For the same compound, in the assay with SK-OV-3 ovarian, the TGI is greater than 100 µM.

On to `CC(C)C[C@H](NC(=O)[C@H](Cc1ccccc1)n1ccc(N2CCCCC2)cc1=O)B(O)O`, for which the GI50 in the assay on OVCAR-5 ovarian was 3.15 µM; in the assay on OVCAR-3 ovarian, 0.327 µM; with CAKI-1 renal, 0.467 µM; in the assay on HOP-62 NSCLC it was 2.63 µM; with COLO 205 colon it was 0.853 µM; in the assay on HCT-116 colon, 0.343 µM. Further, the GI50 is 5.1 µM in the assay on IGROV1 ovarian and 2.36 µM with SK-OV-3 ovarian. The TGI is 97.3 µM in the assay on OVCAR-5 ovarian; 1.21 µM with OVCAR-3 ovarian; 10 µM with CAKI-1 renal; 9.29 µM in the assay with HOP-62 NSCLC; greater than 100 µM in the assay with COLO 205 colon; 2.55 µM in the assay on HCT-116 colon. Moreover, the figures for the TGI in the assay on IGROV1 ovarian and in the assay on SK-OV-3 ovarian were greater than 100 µM and 71.5 µM, respectively.

In the case of `CCCN1C(=O)C/C(=C\C(C)=O)Nc2ccccc21`, the TGI in the assay on OVCAR-5 ovarian, in the assay on OVCAR-3 ovarian, in the assay with CAKI-1 renal, in the assay on HOP-62 NSCLC, with COLO 205 colon and with HCT-116 colon was greater than 100 µM each time. The TGI with IGROV1 ovarian and in the assay with SK-OV-3 ovarian was greater than 100 µM each time.

As to `CCCc1c2c([nH]c(=O)c1C)C(=O)c1[nH]c(=O)c(C)c(CCC)c1C2=O`, the TGI is greater than 100 µM in the assay on OVCAR-5 ovarian; 5.97 µM in the assay with OVCAR-3 ovarian; greater than 100 µM with HOP-62 NSCLC; 55.1 µM in the assay on COLO 205 colon; 36.7 µM in the assay with HCT-116 colon; 88.4 µM in the assay on IGROV1 ovarian. For the same compound, the TGI with UACC-257 melanoma worked out at 6.99 µM; with HL-60(TB) leukemia, 24.8 µM.

Take `CC1=C(C)C(=O)c2c(c(C(=O)c3ccccc3)c3nc4ccccc4n3c2C)C1=O`: the GI50 in the assay with OVCAR-5 ovarian is greater than 100 µM; with OVCAR-3 ovarian it was greater than 100 µM; in the assay with CAKI-1 renal, greater than 100 µM; with HOP-62 NSCLC it was 23.4 µM; in the assay on COLO 205 colon, greater than 100 µM; in the assay with HCT-116 colon, 87.2 µM. Moreover, the values for the GI50 with IGROV1 ovarian, with UACC-257 melanoma and with HL-60(TB) leukemia were 55.2 µM, 95 µM and greater than 100 µM, respectively. Besides, the TGI with OVCAR-5 ovarian is greater than 100 µM; in the assay on OVCAR-3 ovarian it was greater than 100 µM; with CAKI-1 renal, greater than 100 µM; in the assay on HOP-62 NSCLC it was 57.3 µM; in the assay on COLO 205 colon, greater than 100 µM; in the assay with HCT-116 colon it was greater than 100 µM. Besides, the TGI with IGROV1 ovarian, in the assay on UACC-257 melanoma and in the assay on HL-60(TB) leukemia was greater than 100 µM in each case.

Turning to `CN(C)c1ccc(-c2cc(=O)c3ccccc3[nH]2)cc1`, the TGI with OVCAR-3 ovarian, in the assay with HOP-62 NSCLC, in the assay on COLO 205 colon, in the assay with HCT-116 colon, with IGROV1 ovarian and in the assay with UACC-257 melanoma was greater than 100 µM each time. The compound further yielded a TGI in the assay on HL-60(TB) leukemia greater than 100 µM.

Regarding `C=CC1(C)CCC(C(C)C(=O)C(C=C(C)C)OC(C)=O)C12C(=O)Oc1ccccc1C2=O` (stereo not given), the TGI in the assay on OVCAR-3 ovarian, with HOP-62 NSCLC, in the assay on COLO 205 colon, with HCT-116 colon, in the assay on IGROV1 ovarian and with UACC-257 melanoma was greater than 100 µM each time. In addition, the TGI in the assay with HL-60(TB) leukemia is 64.6 µM; in the assay with SK-OV-3 ovarian, greater than 100 µM.

Turning to `Cn1ncc(=S)[nH]c1=S`, the TGI with OVCAR-5 ovarian, in the assay on OVCAR-3 ovarian, with HOP-62 NSCLC, with COLO 205 colon, with HCT-116 colon and in the assay on IGROV1 ovarian was greater than 100 µM in each case. The compound also showed a TGI with SK-OV-3 ovarian greater than 100 µM.

Regarding `COc1ccc(C(=O)/C=C/c2ccc(O)c(O)c2F)c(OC)c1`, the GI50 with OVCAR-5 ovarian was 15.3 µM; in the assay with OVCAR-3 ovarian, 2.63 µM; with CAKI-1 renal it was 5.73 µM; with HOP-62 NSCLC, 19.8 µM; with COLO 205 colon it was 12.9 µM; with HCT-116 colon, 2.66 µM. The figures for the GI50 in the assay on IGROV1 ovarian, in the assay with UACC-257 melanoma and with SK-OV-3 ovarian were 12.8 µM, 10.5 µM and 17.6 µM, respectively. Further, the TGI in the assay on OVCAR-5 ovarian is 23.3 µM and 34.8 µM; in the assay with CAKI-1 renal, 75 µM and 44.9 µM; in the assay on HOP-62 NSCLC, 37.1 µM and > 100 µM; with COLO 205 colon, 22.1 µM and 27.2 µM; with HCT-116 colon, 14 µM and 10 µM; in the assay on IGROV1 ovarian it was 75 µM and > 100 µM. Besides, the TGI in the assay with UACC-257 melanoma was 18.4 µM and 22.3 µM; with SK-OV-3 ovarian it was 47 µM and 90.3 µM.

`CC(=O)Nc1ccc(/C=C(\NC(=O)c2ccccc2)c2nc3ccc4c(c3[nH]2)C(=O)c2ccccc2C4=O)cc1`: the TGI in the assay on OVCAR-5 ovarian, with OVCAR-3 ovarian, in the assay with CAKI-1 renal, in the assay with HOP-62 NSCLC, in the assay on COLO 205 colon and in the assay on HCT-116 colon was greater than 100 µM in each case. The TGI in the assay on IGROV1 ovarian, with UACC-257 melanoma and in the assay with SK-OV-3 ovarian was greater than 100 µM throughout.
